Laboratory results reported in patent US20260000763A1, “Methods of Manufacturing Therapeutic Cells” (The Board of Trustees of the Leland Stanford Junior …, priority 2022, published 2026).

Columns and labels:
[1] = tested on: HA-CAR T cells and CD19.28z-CAR T cells; assay: Cell cycle state by BrdU and 7AAD staining; assay type: cell-based; conditions: day 10, vs control cells, presence or absence of glucose
From the text: 9A: Schematic of the experimental design. […] Graphs represent median expression of indicated markers. […] Representative donor of n=2 donor shown. […] Data are mean+SD from triplicate wells. […] 9K: Schematic of the experimental design. […] Representative donor of n=3 donor shown. […] Representative donor of n=2 donor shown. […] (Top) Dot plots of representative donor shown. […] Representative donor of n=3 donor shown. […] N=2-4 donors from independent experiments. […] N=2-6 donors from independent experiments. […] N=2-4 donors from independent experiments. […] (Top) representative dot plots shown.
Further tested was whether similar functional enhancement occurred with INO exposure in the presence or absence of glucose by serially challenging HA-INO-CAR cells grown in the presence or absence of glucose with Nalm6-GD2. […] Decreased proliferation can be associated with induction of stemness or cells entering quiescence state.

Nalm6 tumor line = assay: Co-culture of CD19.28 CAR T cells with Nalm6: IncuCyte killing and cytokine ELISA; assay type: cell-based
Protocol: (§1) In this example, CD19.28 CAR T cells were cultured in regular complete RPMI media until day 4, and then the cells were split between 11 mM glucose-(CTR) or 11 mM inosine-(INO) containing media (unless stated otherwise). A: Annexin 5 staining was performed at day 17 post-activation. Representative histograms of n=3 donors are shown. B: Surface CD19.28 CAR expression at day 14 post-activation. C: MFI of CAR molecules on CD19.28z CAR T cell surface at day 14 post activation. D: Ratio of CD4+vs CD8+CD19.28 CAR T cells at day 14 post-activation. E: CD19.28z CAR T cells were co-cultured with cells of the Nalm6 tumor line (1:8 E: T) for 75 hrs in an IncuCyte assay. […] Representative donor of n=3 is shown. F: Control media was replaced by INO+ media at the indicated day post activation. At day 14, cells were stimulated with Nalm6 tumor line, and IL-2 and IFNγ secretion was assessed by ELISA. […] For A and B, P values were determined by paired two-tailed t-tests. […] For F and G, P values were determined by unpaired two-tailed t-tests.
(§2) In this example, CD19.28 CAR T cells were generated using a retroviral vector and at day 4 post-activation, the cells were split between 11 mM glucose-(CTR) or 11 mM inosine-(INO) containing media (unless stated otherwise). Tested first was whether the absence of glucose in the culture media has a negative effect on the viability of CAR T cells.
Tumor antigen density is one of the most important factors affecting the efficacy of CAR T immunotherapy. Therefore, assessed next was whether growing CAR T cells in inosine-containing media improves their effector function against low antigen expressing tumor lines.

[2] = tested on: Nalm6-GD2, 143b and CHL255 tumor cell lines; assay: Co-culture of HA CAR T cells with GD2-expressing tumor lines: IncuCyte killing, IL-2 and IFNγ secretion; assay type: cell-based, human; conditions: for antigen induced IFNγ secretion: Nalm6-GD2 24 hrs, D14 cells, INO in presence or absence of glucose
HA-CAR T cells = assay: Improvement index overlapped with proliferation to set a therapeutic window for inosine; assay type: cell-based, human; conditions: 11 mM glucose plus 0.5-11 mM inosine tested; improvement index vs proliferation
Protocol: FIG. 7F: Improvement index calculation scheme.
FIG. 7G: Scatter plot showing correlation between improvement index (y-axis-in black) or proliferation (y-axis-in red) and inosine concentration (x-axis). […] N=2-6 donors from independent experiments.
To establish a therapeutic window for inosine addition, an improvement index was calculated. The index represents a sum of fold change in frequency of CCR7+CD8+ and CD62L+CD8+ at the base line and fold change in IL-2 and IFNγ secretion after 24 hours stimulation with Nalm6-GD2 tumor line by HA-CAR T cells manufactured in 11 mM of glucose and various concentrations of inosine (0.5-11 mM) as compared to control (FIG. 7F).

CD19.28 CAR T cells = CD19.28 CAR T cells expanded in inosine vs glucose media: Annexin V, CAR expression, CD4/CD8, memory phenotype (flow cytometry); assay type: cell-based
Protocol: as §1
In this example, CAR T cells were cultured in control media until day 4 post activation, followed by continued expansion in regular or inosine-containing media. Phenotype of the cells was assessed by flow cytometry at day 21 post activation. A: Frequency of CD62L+ and CCR7+HA CAR+ T cells in 8 different donors. Representative histograms are shown. B: Relative frequency of central memory (CM), naïve, terminally differentiated (TEMRA) and effector memory (EM) HA CAR T cells. N=8 donors. C: Frequency of CD62L+ and CCR7+CD19.28 CAR+ T cells in 8 different donors. Representative histograms are shown. D: Relative frequency of central memory (CM), naïve, terminally differentiated (TEMRA) and effector memory (EM) CD19.28 CAR T cells. N=8 donors.
as §2

CD8+ HA-CAR T cells = assay: ATACseq chromatin accessibility of CD8+ HA- and HA-INO-CAR T cells (ChromVAR, HOMER); assay type: cell-based, human
From the text: Concatenated samples from n=3 donors. […] (Left) Dot plots of representative donor shown.

[3] = day 14, 11 mM inosine vs glucose

## O=c1[nH]cnc2c1ncn2[C@@H]1O[C@H](CO)[C@@H](O)[C@H]1O [inosine, Inosine]
[1]
  cell cycle distribution: higher proportion of cells in S/G2+M phase
Nalm6 tumor line; Nalm6, 1:8 E:T, 75 hrs IncuCyte, cells expanded in 11 mM inosine vs glucose
  tumor killing: increased tumor killing
Nalm6 tumor line; Nalm6 expressing medium or low levels of surface CD19, day 14
  secretion of IFNγ: significantly increased secretion
Nalm6 tumor line; stimulated with Nalm6 at day 14, ELISA
  effector cytokine secretion (IL-2, IFNγ): increased
[2]; INO added on day 4, 7, 10 or 14, 143b 1:1 E:T from day 15
  cytotoxic function: increased cytotoxic function
[2]
  antigen induced IFNγ secretion: significantly enhanced antigen induced IFNγ secretion
[2]; listed as INO
  antigen induced IFNγ secretion: enhanced antigen induced IFNγ secretion
[2]; serial challenge with Nalm6-GD2 1:1, glucose present or absent during manufacturing
  tumor killing and cytokine secretion after multiple stimulations: enhanced tumor killing and cytokine secretion
HA-CAR T cells
  inosine concentration range improving phenotype and function without complete inhibition of expansion (therapeutic window): 2.75 to 11 mM
CD19.28 CAR T cells; CD19.28 CAR T cells, 11 mM inosine vs 11 mM glucose, day 17
  percentage of live cells: increase
CD19.28 CAR T cells; CD19.28 CAR T cells, 11 mM inosine without glucose from day 4, vs 11 mM glucose, day 17 post-activation
  frequency of Annexin V+ apoptotic cells: significantly lower frequency
CD19.28 CAR T cells; CD19.28z CAR T cell surface, day 14, 11 mM inosine vs glucose
  CAR MFI: increased
CD19.28 CAR T cells; [3]
  CD4/CD8 ratio: neither percentage of CAR+ T cells nor CD4/CD8 ratio was affected
  percentage of CAR+ T cells: neither percentage of CAR+ T cells nor CD4/CD8 ratio was affected
CD8+ HA-CAR T cells; ChromVAR and HOMER
  accessibility of RUNT, IRF and RHD family TF binding motifs: increased accessibility
CD8+ HA-CAR T cells; D14 CD8+ cells, three individuals
  genomic regions with changed chromatin accessibility: more than 10,000 genomic regions
CD8+ HA-CAR T cells; PCA of ATACseq
  PC1 variance: 57%
